Experimental data taken from patent publication US20070219186A1, “Pyrazolo[1,5-A]pyrimidine derivatives and methods of use thereof” (priority 2006, published 2007).
Read-outs that look alike come from different tables or passages of the source.

Biological target: T1, human B-Raf (Homo sapiens, UniProt P15056)
T1 construct: Flag; GST; made in house; host or cells: Sf9 insect cells (B-Raf); E. coli (MEK1-GST)
Assay: B-Raf Kinase to MEK1 ELISA
Assay type: biochemical
Conditions: for IC50: median, cpd concentrations from 10 μM to 30 nM in half log dilutions, read-out: Median IC50; for inhibition at 10 µM: read-out: % Inhib./10 uM
Text: TITLE: B-Raf Kinase to MEK1 ELISA
PURPOSE: To discover B-Raf Kinase inhibitors that can inhibit growth of tumor cells which contain oncogenic forms of Receptor Tyrosine Kinases or K-Ras, or B-Raf kinase.
Reagents: Flag/GST-tagged recombinant human B-Raf produced in Sf9 insect cells, human non-active Mek-1-GST (recombinant protein produced in E. coli); and a phospho-MEK1 specific poly-clonal Ab from Cell Signaling Technology (cat. #9121).
B-Raf1 Kinase Assay Procedure:
B-Raf-1 is used to phosphorylate GST-MEK1. MEK1 phosphorylation is measured by a phospho-specific antibody (from Cell Signaling Technology, cat. #9121) that detects phosphorylation of two serine residues at positions 217 and 221 on MEK1.
B-Raf Assay Stock Solutions:
1. Assay Dilution Buffer (ADB): 20 mM MOPS, pH 7.2, 25 mM β-glycerol phosphate, 5 mM EGTA, 1 mM sodium orthovanadate, 1 mM dithiothreitol.
2. Magnesium/ATP Cocktail: 200 μM cold ATP and 40 mM magnesium chloride in ADB.
3. Active Kinase: Active B-Raf: used at ˜20 ng per assay point.
4. Non-active GST-MEK1: Use at 100 nM (50 nM final).
6. Anti-GST Ab (Pharmacia)
7. Anti-rabbit Ab/Europium conjugate (Wallac)
1. Add 25 μl of ADB containing B-Raf and Mek per assay (i.e. per well of a 96 well plate)
2. Add 25 μl of 0.2 mM ATP and 40 mM magnesium chloride in ADB.
3. Incubate for 60 minutes at RT in a shaking incubator.
4. Transfer this mixture to an anti-GST Ab coated 96 well plate (Nunc Immunosorb plates coated o/n with a-GST.
5. Incubate for 60 minutes at 30° C. in a shaking incubator
6. Wash 3× with TBST, add Anti-Phospho MEK1 (1:1000)
7. Incubate for 60 minutes at 30° C. in a shaking incubator
8. Wash 3× with TBST, add Anti-rabbit Ab/Europium conjugate (Wallac) (1:500)
9. Incubate for 60 minutes at 30° C. in a shaking incubator
10. Add 100 ul of Wallac Delfia Enhancement Solution and shake for 10 minutes.
11. Read plates in Wallac Victor model Plate Reader.
12. Collect data analyze in Excel for single point and IC50 determinations.
Typically Raf-1 assay is run at cpd concentrations from 10 μM to 30 nM in half log dilutions. (% inhibition is determined for each cpd concentration)

T1 sequence (P15056 whole entry): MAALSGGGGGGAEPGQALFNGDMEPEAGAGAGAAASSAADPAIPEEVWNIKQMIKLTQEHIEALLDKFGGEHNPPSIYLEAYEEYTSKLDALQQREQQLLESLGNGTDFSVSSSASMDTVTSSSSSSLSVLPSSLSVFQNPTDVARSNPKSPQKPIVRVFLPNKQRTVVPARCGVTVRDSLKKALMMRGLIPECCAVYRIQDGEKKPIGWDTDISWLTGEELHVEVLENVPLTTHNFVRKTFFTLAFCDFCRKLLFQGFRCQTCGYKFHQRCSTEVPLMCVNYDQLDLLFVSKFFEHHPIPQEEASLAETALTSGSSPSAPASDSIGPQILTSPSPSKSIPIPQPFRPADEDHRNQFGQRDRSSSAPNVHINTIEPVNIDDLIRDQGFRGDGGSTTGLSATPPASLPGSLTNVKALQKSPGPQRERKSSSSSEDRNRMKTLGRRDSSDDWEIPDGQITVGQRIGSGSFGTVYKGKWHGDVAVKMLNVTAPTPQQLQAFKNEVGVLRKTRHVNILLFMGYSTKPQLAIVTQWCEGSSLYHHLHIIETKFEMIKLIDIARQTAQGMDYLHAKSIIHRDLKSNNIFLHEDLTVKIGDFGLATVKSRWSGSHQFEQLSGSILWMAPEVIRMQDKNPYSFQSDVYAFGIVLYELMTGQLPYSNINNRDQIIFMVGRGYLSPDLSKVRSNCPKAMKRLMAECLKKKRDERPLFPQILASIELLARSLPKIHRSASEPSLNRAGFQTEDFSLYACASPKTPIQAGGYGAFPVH

IC50	inhibition at 10 µM	inhibition at 10 µM (single point assay, 10 uM)	Structure (SMILES)
0.6 µM	76%		CCOC(=O)c1cnn2c(-c3cccc(NC(=O)Nc4ccc(F)c(Cl)c4)c3)ccnc12 [Example 25, ethyl 7-[3-({[(3-chloro-4-fluorophenyl)amino]carbonyl}amino)phenyl]pyrazolo[1,5-a]pyrimidine-3-carboxylate]
0.5 µM		76%	CCOC(=O)c1cnn2c(-c3cccc(NC(=O)c4ccc(C)c(C(F)(F)F)c4)c3)ccnc12 [Example 26, ethyl 7-(3-{[4-methyl-3-(trifluoromethyl)benzoyl]amino}phenyl)pyrazolo[1,5-a]pyrimidine-3-carboxylate]
> 10 µM	12%		CCOC(=O)c1cnn2c(-c3cccc(NC(=O)c4cc(C(F)(F)F)ccc4Cl)c3)ccnc12 [Example 27, ethyl 7-(3-{[2-chloro-5-(trifluoromethyl)benzoyl]amino}phenyl)pyrazolo[1,5-a]pyrimidine-3-carboxylate]
> 10 µM	19%		CCOC(=O)c1cnn2c(-c3cccc(NC(=O)c4cc(C(F)(F)F)cc(Cl)c4F)c3)ccnc12 [Example 28, ethyl 7-(3-{[3-chloro-2-fluoro-5-(trifluoromethyl)benzoyl]amino}phenyl)pyrazolo[1,5-a]pyrimidine-3-carboxylate]
> 10 µM	0%		CCOC(=O)c1cnn2c(-c3cccc(NC(=O)c4cc(F)c(Cl)cc4F)c3)ccnc12 [Example 29, ethyl 7-{3-[(4-chloro-2,5-difluorobenzoyl)amino]phenyl}pyrazolo[1,5-a]pyrimidine-3-carboxylate]
1.3 µM	75%		CCOC(=O)c1cnn2c(-c3cccc(NC(=O)c4ccc(OC)c(C(F)(F)F)c4)c3)ccnc12 [Example 30, ethyl 7-(3-{[4-methoxy-3-(trifluoromethyl)benzoyl]amino}phenyl)pyrazolo[1,5-a]pyrimidine-3-carboxylate]
> 10 µM	48%		CNC(=O)c1cnn2c(-c3cccc(NC(=O)c4cccc(C(F)(F)F)c4)c3)ccnc12 [Example 31, N-methyl-7-(3-{[3-(trifluoromethyl)benzoyl]amino}phenyl)-pyrazolo[1,5-a]pyrimidine-3-carboxamide]
> 10 µM	29%		O=C(Nc1cccc(-c2ccnc3c(C(=O)O)cnn23)c1)c1cccc(C(F)(F)F)c1 [Example 32, 7-(3-{[3-(trifluoromethyl)benzoyl]amino}phenyl)pyrazolo[1,5-a]pyrimidine-3-carboxylic acid]
0.68 µM	80%		CCOC(=O)c1cnn2c(-c3cccc(NC(=O)Nc4cccc(C(F)(F)F)c4)c3)ccnc12 [Example 33, ethyl 7-{3-[({[3-(trifluoromethyl)phenyl]amino}carbonyl)amino]phenyl}pyrazolo[1,5-a]pyrimidine-3-carboxylate]
> 10 µM	37%		CCOC(=O)c1cnn2c(-c3cccc(NC(=O)Nc4ccc(Cl)cc4)c3)ccnc12 [Example 34, ethyl 7-[3-({[(4-chlorophenyl)amino]carbonyl}amino)phenyl]pyrazolo[1,5-a]pyrimidine-3-carboxylate]
3.1 µM	71%		CCOC(=O)c1cnn2c(-c3cccc(NC(=O)Nc4ccc(C(F)(F)F)cc4)c3)ccnc12 [Example 35, ethyl 7-{3-[({[4-(trifluoromethyl)phenyl]amino}carbonyl)amino]phenyl}pyrazolo[1,5-a]pyrimidine-3-carboxylate]
> 10 µM	33%		CCOC(=O)c1cnn2c(-c3cccc(NC(=O)Nc4ccc(Cl)cc4C)c3)ccnc12 [Example 36, ethyl 7-[3-({[(4-chloro-2-methylphenyl)amino]carbonyl}amino)phenyl]pyrazolo[1,5-a]pyrimidine-3-carboxylate]
6.82 µM	76%		CCOC(=O)c1cnn2c(-c3cccc(NC(=O)Nc4cc(C(F)(F)F)ccc4Cl)c3)ccnc12 [Example 37, ethyl 7-{3-[({[2-chloro-5-(trifluoromethyl)phenyl]amino}carbonyl)amino]phenyl}pyrazolo[1,5-a]pyrimidine-3-carboxylate]
> 10 µM	20%		CCOC(=O)c1cnn2c(-c3cccc(NC(=O)Nc4ccc(C#N)cc4)c3)ccnc12 [Example 38, ethyl 7-[3-({[(4-cyanophenyl)amino]carbonyl}amino)phenyl]pyrazolo[1,5-a]pyrimidine-3-carboxylate]
> 10 µM		14%	CCOC(=O)c1cnn2c(-c3cccc(NC(=O)Nc4ccccc4C(F)(F)F)c3)ccnc12 [Example 39, ethyl 7-{3-[({[2-(trifluoromethyl)phenyl]amino}carbonyl)amino]phenyl}pyrazolo[1,5-a]pyrimidine-3-carboxylate]
0.34 µM	81%		CCOC(=O)c1cnn2c(-c3cccc(NC(=O)Nc4ccc(Cl)c(Cl)c4)c3)ccnc12 [Example 40, ethyl 7-[3-({[(3,4-dichlorophenyl)amino]carbonyl}amino)phenyl]pyrazolo[1,5-a]pyrimidine-3-carboxylate]
> 10 µM	37%		CCOC(=O)c1cnn2c(-c3cccc(NC(=O)Nc4ccc(Br)cc4)c3)ccnc12 [Example 41, ethyl 7-[3-({[(4-bromophenyl)amino]carbonyl}amino)phenyl]pyrazolo[1,5-a]pyrimidine-3-carboxylate]
3.53 µM	70%		CCOC(=O)c1cnn2c(-c3cccc(NC(=O)Nc4ccc(C)c(C)c4)c3)ccnc12 [Example 42, ethyl 7-[3-({[(3,4-dimethylphenyl)amino]carbonyl}amino)phenyl]pyrazolo[1,5-a]pyrimidine-3-carboxylate]
> 10 µM	9%		CCOC(=O)c1cnn2c(-c3cccc(NC(=O)Nc4ccc(Cl)cc4C(F)(F)F)c3)ccnc12 [Example 43, ethyl 7-{3-[({[4-chloro-2-(trifluoromethyl)phenyl]amino}carbonyl)amino]phenyl}pyrazolo[1,5-a]pyrimidine-3-carboxylate]
0.27 µM	90%		CCOC(=O)c1cnn2c(-c3cccc(NC(=O)Nc4ccc(F)c(C(F)(F)F)c4)c3)ccnc12 [Example 44, ethyl 7-{3-[({[4-fluoro-3-(trifluoromethyl)phenyl]amino}carbonyl)amino]phenyl}pyrazolo[1,5-a]pyrimidine-3-carboxylate]
	56%		COCCNC(=O)c1cnn2c(-c3cccc(NC(=O)c4cccc(C(F)(F)F)c4)c3)ccnc12 [Example 45, N-(2-methoxyethyl)-7-(3-{[3-(trifluoromethyl)benzoyl]amino}phenyl)pyrazolo[1,5-a]pyrimidine-3-carboxamide]
	54%		CCCNC(=O)c1cnn2c(-c3cccc(NC(=O)c4cccc(C(F)(F)F)c4)c3)ccnc12 [Example 46, N-propyl-7-(3-{[3-(trifluoromethyl)benzoyl]amino}phenyl)pyrazolo[1,5-a]pyrimidine-3-carboxamide]
> 10 µM	35%		O=C(Nc1cccc(-c2ccnc3c(C(=O)Nc4cccnc4)cnn23)c1)c1cccc(C(F)(F)F)c1 [Example 47, N-pyridin-3-yl-7-(3-{[3-(trifluoromethyl)benzoyl]amino}phenyl)pyrazolo[1,5-a]pyrimidine-3-carboxamide]
